In patent US20230279020A9, “CARM1 INHIBITORS AND USES THEREOF” (Epizyme, Inc., priority 2013, published 2023) one finds IC50 data, which are given here for 45 molecules.

Structures are written as SMILES. Some results are limits rather than exact numbers.

Chain of Human CARM1 (PRMT4) (Q86X55 other isoform, or with tags, fused parts or gaps isoform Q86X55-1): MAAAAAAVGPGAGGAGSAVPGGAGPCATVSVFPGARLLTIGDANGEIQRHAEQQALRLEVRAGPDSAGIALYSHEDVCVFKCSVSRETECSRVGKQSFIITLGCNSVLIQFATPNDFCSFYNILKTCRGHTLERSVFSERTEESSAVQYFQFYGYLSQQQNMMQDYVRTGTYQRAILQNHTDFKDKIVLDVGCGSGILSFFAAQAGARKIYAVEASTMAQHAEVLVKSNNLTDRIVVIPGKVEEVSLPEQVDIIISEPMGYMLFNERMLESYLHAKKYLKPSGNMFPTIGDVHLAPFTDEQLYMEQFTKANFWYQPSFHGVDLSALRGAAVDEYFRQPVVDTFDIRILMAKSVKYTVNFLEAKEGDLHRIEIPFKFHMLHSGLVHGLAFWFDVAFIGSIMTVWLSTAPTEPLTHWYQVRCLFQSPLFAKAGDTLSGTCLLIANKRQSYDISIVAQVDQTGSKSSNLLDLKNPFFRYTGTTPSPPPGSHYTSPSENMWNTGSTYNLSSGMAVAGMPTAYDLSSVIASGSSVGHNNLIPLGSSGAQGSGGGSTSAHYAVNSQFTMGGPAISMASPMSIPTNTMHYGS

This test addresses Human CARM1 (PRMT4) (Homo sapiens (Human), UniProt Q86X55). The test can be described thus: CARM1 enzyme assay on peptide substrate (3H-SAM Flashplate). The following applies: Biochemical potencies, classification codes; read-out: Biochem IC50.
Regarding `CNCC(O)COc1cccc(-c2nc(-c3c(C)noc3C)c(C)c(N3CCC[C@@H](NC)C3)n2)c1` (stereo partly drawn) [Example 177-1a], the IC50 was below 100 nM.
Consider `CNC[C@@H](O)COc1ccc(Cl)c(-c2nc(-c3c(C)noc3C)c(C)c(N3Cc4nccnc4C3)n2)c1` [Example 142-3], for which the IC50 was below 100 nM.
On to `CNCC(O)COc1cccc(-c2nc(NCC3CCOCC3)cc(-c3c(C)noc3C)n2)c1` (stereo not drawn) [Example 78-1a], for which the IC50 was below 100 nM.
As to `CNC[C@@H](O)COc1ccc(Cl)c(-c2nc(-c3c(C)noc3C)c(C)c(N3CCC4(CC3)CN(C(=O)OC)C4)n2)c1` [Example 115-3], the IC50 is below 100 nM.
As for `CNCC(O)COc1cc(Cl)cc(-c2nc(NC3CCOCC3)c(C)c(-c3c(C)noc3C)n2)c1` (stereo not drawn) [Example 47-1a], the half-inhibitory concentration (IC50) is below 100 nM.
The figure for `CNCC(O)COc1cc(Cl)cc(-c2nc(NC3CCN(C4CC4)CC3)c(C)c(-c3c(C)noc3C)n2)c1` (stereo not drawn) [Example 22-3] is below 100 nM; for `CNCC(O)COc1cccc(-c2nc(-c3nc(C)cn3C)cc(N(C)C3CCOCC3)n2)c1` (stereo not drawn) [Example 519-1a] it is below 100 nM.
As to `CNC[C@@H](O)COc1ccc(Cl)c(-c2nc(N[C@H]3C[C@H](OC)C3)c(Cl)c(-c3c(C)noc3C)n2)c1` [Example 217-3], the IC50 is below 100 nM.
Regarding `CNCC(O)COc1cccc(-c2nc(-c3c(C)noc3C)cc(N3CCN(C)[C@H](C)C3)n2)c1` (stereo partly drawn) [Example 175-1a], the IC50 was below 100 nM.
In the case of `CNCC(O)COc1cccc(-c2nc(N(C)C3CCOCC3)cc(C3(C)CC3)n2)c1` (stereo not drawn) [Example 19-1], the IC50 was below 100 nM.
In the case of `CNC[C@@H](O)COc1ccc(Cl)c(-c2nc(OC[C@H]3CCOC3)c(C)c(-c3c(C)noc3C)n2)c1` [Example 117-3], the IC50 was below 100 nM.
`CNCC(O)COc1cccc(-c2nc(-c3c(C)noc3C)cc(N3CCN(C(=O)OC)CC3)n2)c1` (stereo not drawn) [Example 81-1a]: the IC50 was below 100 nM.
On to `CNC[C@H](O)COc1cccc(-c2nc(NC3CCOCC3)cc(-c3c(C)noc3C)n2)c1` [Example 17-1a], for which the IC50 is below 100 nM.
As to `CCC(=O)NC1CN(c2nc(-c3cccc(OCC(O)CNC)c3)nc(-c3c(C)noc3C)c2C)C1` (stereo not drawn) [Example 14-3], the IC50 was below 100 nM.
With `CNC[C@@H](O)COc1ccc(C(F)(F)F)c(-c2nc(NC3CCN(C(=O)OC)CC3)c(C)c(-c3c(C)noc3C)n2)c1` [Example 204-3], the IC50 was below 100 nM.
For `CNC[C@H](O)COc1ccc(Cl)c(-c2nc(NC3CCN(C(=O)OC)CC3)c(Cl)c(-c3c(C)noc3C)n2)c1` [Example 305-1a], the IC50 is below 100 nM.
For the molecule `CNCC(O)COc1cccc(-c2nc(-c3cncnc3)cc(-c3c(C)noc3C)n2)c1` (stereo not drawn) [Example 8-1a], the IC50 was below 100 nM.
Take `CNCC(O)COc1cccc(-c2nc(-c3c(C)noc3C)c(C)c(N3CC(NC(=O)N(C)C)C3)n2)c1` (stereo not drawn) [Example 13-3]: the IC50 was below 100 nM.
As to `CNC[C@@H](O)COc1ccc(Cl)c(-c2nc(OC[C@H]3CCCO3)c(C)c(-c3c(C)noc3C)n2)c1` [Example 116-3], the IC50 was below 100 nM.
Regarding `Cc1noc(C)c1-c1nc(-c2cc(OC[C@H](O)CN(C)C)ccc2Cl)nc(N[C@H]2CCN(C3CC3)[C@@H](C)C2)c1C` [Example 171-3], the IC50 was below 100 nM.
As to `CCOC(=O)N1CCC2(CC1)CN(c1nc(-c3cc(OC[C@H](O)CNC)ccc3Cl)nc(-c3c(C)noc3C)c1C)C2` [Example 285-3], the IC50 is below 100 nM.
The figure for `CCS(=O)(=O)N1CCCC(CNc2nc(-c3cccc(OCC(O)CNC)c3)nc(-c3c(C)noc3C)c2C)C1` (stereo not drawn) [Example 167-1a] is below 100 nM; for `CNC[C@@H](O)COc1ccc(Cl)c(-c2nc(-c3c(C)noc3C)c(C)c(N3CCC4(CCCO4)C3)n2)c1` (stereo partly drawn) [Example 289-3] it is below 100 nM; for `CNCC(O)COc1ccc(Cl)c(-c2nc(NC3CCOCC3)c(C)c(-c3c(C)noc3C)n2)c1` (stereo not drawn) [Example 29-3] it is below 100 nM.
In the case of `CNCC(O)COc1cccc(-c2nc(N3CC4CCC(C3)O4)cc(N(C)C3CCOCC3)n2)c1` (stereo not drawn) [Example 566-1a], the IC50 was below 100 nM.
`CNC[C@H](O)COc1ccc(Cl)c(-c2nc(-c3c(C)noc3C)c(C)c(N3CCC4(CC3)CN(S(C)(=O)=O)C4)n2)c1` [Example 75-3]: the IC50 is below 100 nM.
On to `CCOC(=O)N1CCOC[C@@H]1CNc1nc(-c2cccc(OC[C@H](O)CNC)c2)nc(-c2c(C)noc2C)c1C` [Example 277-1a], for which the IC50 was below 100 nM.
With `CNC[C@H](O)COc1ccc(Cl)c(-c2nc(N[C@H]3CCN(C(=O)OC)[C@H](C)C3)c(C)c(-c3c(C)noc3C)n2)c1` [Example 103-3], the IC50 is below 100 nM.
For `CNC[C@@H](O)COc1ccc(Cl)c(-c2nc(N[C@H]3CC[C@@H](OC)C3)c(C)c(-c3c(C)noc3C)n2)c1` [Example 212-3], the IC50 is below 100 nM.
`CNC[C@@H](O)COc1cccc(-c2nc(NC3CCOCC3)c(C)c(-c3c(C)noc3C)n2)c1` [Example 56-1a]: the IC50 is below 100 nM.
`CNCC(O)COc1cccc(-c2nc(N[C@@H]3CCOC3)c(C)c(N3CCn4ccnc4C3)n2)c1` (stereo partly drawn) [Example 359-1a]: the IC50 is below 100 nM.
Consider `CNCC(O)COc1cccc(-c2nc(N[C@@H]3CCOC3)c(C)c(-c3cn[nH]c3)n2)c1` (stereo partly drawn) [Example 338-1a], for which the IC50 was below 100 nM.
As for `CNC[C@@H](O)COc1ccc(Cl)c(-c2nc(N[C@H]3CO[C@H](C)C3)c(Cl)c(-c3c(C)noc3C)n2)c1` [Example 201-3], the IC50 is below 100 nM.
The figure for `CNCC(O)COc1cccc(-c2nc(NC3(C(F)(F)F)CC3)c(C)c(-c3c(C)noc3C)n2)c1` (stereo not drawn) [Example 8-3] is below 100 nM; for `CNCC(O)COc1cccc(-c2nc(N[C@H]3CCOC3)cc(-c3c(C)noc3C)n2)c1` (stereo partly drawn) [Example 13-1a] it is below 100 nM.
Consider `CNCC(O)COc1cccc(-c2nc(-c3c(C)noc3C)cc(N3CCN(CC(F)(F)F)CC3)n2)c1` (stereo not drawn) [Example 132-1a], for which the IC50 was below 100 nM.
Consider `CNCC(O)COc1cccc(-c2nc(-c3c(C)noc3C)c(C)c(N3CCCC4(CN(C(=O)N(C)C)C4)C3)n2)c1` (stereo not drawn) [Example 297-1a], for which the IC50 is below 100 nM.
For `CNCC(O)COc1cccc(-c2cc(N(C)C3CCOCC3)nc(-c3cnc4[nH]ccc4c3)n2)c1` (stereo not drawn) [Example 16-2], the IC50 was below 100 nM.
With `CNC[C@@H](O)COc1ccc(F)c(-c2nc(-c3c(C)noc3C)cc(N3Cc4nccnc4C3)n2)c1` [Example 274-3], the IC50 is below 100 nM.
Turning to `CNCC(O)COc1cccc(-c2nc(NCCCN3CCCC3=O)cc(C3=CCCC3)n2)c1` (stereo not drawn) [Example 42-1], the IC50 was below 100 nM.
Consider `CNC[C@@H](O)COc1cccc(-c2nc(NC3CCN(C(=O)OC)CC3)c(C)c(-c3c(C)noc3C)n2)c1` [Example 170-1a], for which the IC50 was below 100 nM.
Turning to `CNCC(O)COc1cccc(-c2nc(-c3cnc4ncnn4c3)cc(N(C)C3CCOCC3)n2)c1` (stereo not drawn) [Example 536-1a], the IC50 was below 100 nM.
For the molecule `CNC[C@@H](O)COc1ccc(F)c(-c2nc(N[C@H]3CCN(C(=O)OC)C[C@H]3F)c(C)c(-c3c(C)noc3C)n2)c1` [Example 64-3], the IC50 was below 100 nM.
Regarding `CC[C@H]1CN(c2cc(N(C)C3CCOCC3)nc(-c3cccc(OCC(O)CNC)c3)n2)CCN1` (stereo partly drawn) [Example 505-1a], the IC50 is below 100 nM.
On to `CNCC(O)COc1cccc(-c2nc(Nc3cn(C)cn3)c(C)c(-c3c(C)noc3C)n2)c1` (stereo not drawn) [Example 210-1a], for which the IC50 is below 100 nM.

By IC50 is commonly meant the concentration at which inhibition is half-maximal.
